Assay results reported in US20200268832A1, “COMPOSITIONS FOR DELIVERY TO AND TREATMENT OF ATHEROSCLEROTIC PLAQUES” (Sanford Burnham Prebys Medical Discovery Institute, priority 2015, published 2020).
“Also recorded” adds a separate entry of the source.

Columns and labels:
p32 protein [1] = target: T1, p32 protein (Homo sapiens, UniProt Q07021); assay: NMR 1D 1H-aliph spectra of p32 with compounds; format: binding; details: 5 μM p32; compounds 100 and 500 μM; TT1 70 μM
T1 construct: 6xHis; host or cells: Rosetta-gami-2 cells (Novagen); an E. coli strain by own knowledge
T1 sequence (Q07021 74-282): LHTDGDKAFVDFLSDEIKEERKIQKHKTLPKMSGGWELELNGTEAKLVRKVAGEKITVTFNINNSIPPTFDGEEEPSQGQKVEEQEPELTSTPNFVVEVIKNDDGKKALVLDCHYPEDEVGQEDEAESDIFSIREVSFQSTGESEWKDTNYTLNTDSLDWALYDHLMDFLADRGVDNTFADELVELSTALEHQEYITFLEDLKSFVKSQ
Experimental: FIGS. 3A and 3B are graphs showing NMR based evaluation of binding of compounds 4014008 and 7933989 to P32 protein. The ID ^1H-aliph spectra of 5 μM P32 in the absence (bottom) and presence of compounds #4014008 (A) and #7933989 (B) at 100 μM (second from bottom) and 500 μM (second from top) were collected. As a control, the spectrum of p32 in the presence of the known peptide binder, TT1 at 70 μM, was also collected (top).
All the NMR experiments were carried out on a Bruker Avance 700 spectrometer equipped with a TCI cryoprobe at T=293 K. For structure determinations, the peptide concentration was 100 μM in the NMR buffer in presence of 150 μM of ZnCl2. One-dimensional (1D) 1H spectra were acquired with a spectral width of 8417.51 Hz, relaxation delay 1.0 s, 8 k data points for acquisition and 16 k for transformation.

p32 protein [2] = target: T1, p32 protein; assay: TT1 phage binding inhibition assay (ELISA-type); details: 100 μM compound
Experimental: The binding of individual phage to p32 was verified using ELISA-type of phage binding assay. 96-well plates (Corning Life Sciences, Tewksbury, Mass., USA) were coated with 100 μL of 5 μg/mL p32 in PBS at 4° C. overnight, washed 3 times with 200 μL of PBST (PBS+0.05% Tween-20), blocked with 200 μL of 0.5% bovine serum albumin (BSA) in PBST for 1 h at 37° C., and washed 3 times with PBST. Phages (1.11*10^8 pfu in 100 μL PBST) were added to p32-coated/BSA-blocked wells, the plate was incubated at 4° C. overnight, and washed 3 times with PBST. Subsequently, the plates were incubated with 100 μL in-house prepared polyclonal rabbit anti-T7 antibody diluted 1:1000 in PBST for 1 h at 4° C., and washed 3 times with washing buffer. Horseradish peroxidase (HRP)-labeled anti-rabbit IgG (Sigma-Aldrich) was diluted 1:1000 in PBS, and 100 μL was added to the wells, followed by 1 h incubation at 4° C. and washing 3 times. Next, 100 μL of OPD silver and gold substrate (Sigma-Aldrich) was added to the wells and incubated at room temperature until visible color was observed (<30 min). The reaction was stopped by adding 50 μL of 1M H2SO4, and the plate was read at 492 nm (Varioskan Flash, Thermo Scientific, Waltham, Mass., USA).
The ability to inhibit TT1-phage binding to p32 protein was used as a secondary assay to verify the hit compounds. The competition assay was based on the phage binding assay described above with minor modifications. ELISA plates were coated with 2.5 μg/mL p32, incubated with phages (1.11*10^8 pfu in 100 μL PBST) and 100 μM hit compounds at 4° C. overnight, and followed by antibody incubation and chromogenic reaction. Negative controls included DMSO at concentration it was used to dissolve the hit compounds.

b1b2 domain of NRP-1 = target: T2, b1b2 domain of NRP-1 (Homo sapiens, UniProt O14786); assay: Fluorescence polarization displacement of FAM-RPARPAR from NRP-1; format: binding; details: specificity assay, up to 100 μM
T2 sequence (O14786 273-586 limits assumed): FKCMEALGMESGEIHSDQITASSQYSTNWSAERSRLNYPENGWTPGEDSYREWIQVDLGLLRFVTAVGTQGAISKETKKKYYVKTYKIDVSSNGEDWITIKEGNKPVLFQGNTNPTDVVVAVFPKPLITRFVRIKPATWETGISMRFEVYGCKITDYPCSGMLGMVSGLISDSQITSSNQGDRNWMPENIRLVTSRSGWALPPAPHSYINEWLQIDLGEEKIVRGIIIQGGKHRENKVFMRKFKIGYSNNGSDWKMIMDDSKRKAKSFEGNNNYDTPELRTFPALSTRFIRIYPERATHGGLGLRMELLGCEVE
Experimental: Results of the high-throughput screen were confirmed in dose response tests. 8.25 μM to 100 μM dilutions of the compounds that displaced FAM-peptide from p32 were used in competition with FAM-peptide as described in previous section. Specificity of the hit compounds was verified by examining their binding to a different protein, b1b2 domain of NRP-1 (Vander Kooi et al., Proc. Natl. Acad. Sci. U.S.A., 10.1073/pnas.0700043104). Experimental method for NRP-1 b1b2 was developed and validated similarly to p32, using FAM-RPARPAR peptide as a known peptide ligand for NRP-1. The displacement of FAM-RPARPAR from NRP-1 protein by the hit compounds was studied in 384-well format, as described above.

With `Cc1cnccc1NCCN` [Compound 4014008, N-(3-methylpyridin-4-yl)ethane-1,2-diamine] the “perturbations in 1D 1H-aliphatic spectra of p32” value (p32 protein [1]) was “caused similar perturbations; also recorded: shift in the peak at around −0.3 ppm”, the inhibition at 100 µM (p32 protein [2]) was 50% and the “effect on RPARPAR peptide binding to NRP-1” value (b1b2 domain of NRP-1) was “no effect”.
